Tests used:
[1] = tested on: Matrix protein 2 (Influenza A virus), P06821 [V27A]; assay: Inhibition of Influenza A Virus M2 proton channel V27A mutant expressed in Xenopus laevis oocytes at 100 uM after 2 mins by two-electrode patch clamp assay; type: cell-based; settings: Oocyte
[2] = tested on: Matrix protein 2 (Influenza A virus), P06821 [withheld]; assay: Inhibition of Influenza A Virus M2 proton channel S31N mutant expressed in Xenopus laevis oocytes at 100 uM after 2 mins by two-electrode patch clamp assay; type: cell-based; settings: Oocyte

Structure (SMILES)	inhibition [1]	inhibition [2]
NC(=O)C12CC3CC(CC(C3)C1)C2	< 15%	33%
NC(CO)C12CC3CC(CC(C3)C1)C2 (stereo not given)	4%	15%
NC12CC3CC(CC(C3)C1)C2	0%	35%
C1NC2CC3CC1CC(C3)C2	< 15%	33%
NC1C2C3CC4C1C1C2CC3C41 (stereo not given)	< 15%	33%
NC1CCC2(CCCCC2)CC1	< 15%	33%
NC1C2CC3CC(C2)CC1C3 (stereo not given)	< 15%	33%
NC12CCC3CC(CC(C3)C1)C2	< 15%	33%
NOC12CC3CC(CC(C3)C1)C2	< 15%	33%
NC1CC2CC1C1CCCC21 (stereo not given)	< 15%	33%
N=C(N)NC(=N)NC12CC3CC(CC(C3)C1)C2	< 15%	33%
O=C1C2CC3CC(C2)CC1C3	< 15%	33%
C1CCC2(CC1)CCNCC2	< 15%	33%
CC1(C)C(N)C1(C)C	< 15%	33%
CC1(O)C2CC3CC(C2)CC1C3 (stereo not given)	< 15%	33%
O=S(=O)(O)C12CC3CC(CC(C3)C1)C2	< 15%	33%
C1CC2CCC1CNC2	< 15%	33%
CC(C)(C)c1ccc(CN)cc1	< 15%	33%
OC1C2C3CC4C2C(O)C2C1C3C42 (stereo not given)	< 15%	33%
N=C(N)C12CC3CC(CC(C3)C1)C2	< 15%	33%

Structure (SMILES)	inhibition [1]	inhibition [2]
NC12CC3CC(C1)CC(O)(C3)C2	< 15%	33%
N=C(N)NCC12CC3CCC(CC(C3)C1)C2	< 15%	33%
N=C(N)NC12CC3CC(CC(C3)C1)C2	< 15%	33%
NC12CC3CCC(CC(C3)C1)C2	< 15%	33%
CC(C)(C)CC(C)(C)N	< 15%	33%
NC1Cc2ccccc2C1	< 15%	33%
NC1C2C3CC4C2C(O)C2C1C3C42 (stereo not given)	< 15%	33%
OC1CCC(C2CC3CCC2C3)CC1O (stereo not given)	< 15%	33%
O=C1CC2(CCCCC2)CC(=O)N1	< 15%	33%
OC12CC3CC(CC(C3)C1)C2	< 15%	33%
NC12CC3CC(C1)CC(CO)(C3)O2	< 15%	33%
NN1C(=O)CC2(CCCCC2)CC1=O	< 15%	33%
NNC1CCC2(CCCCC2)CC1	< 15%	33%
OC1CC2C3CCC(C3)C2C1O (stereo not given)	< 15%	33%
OC1C2C3CC4C1C1C2CC3C41 (stereo not given)	< 15%	33%
CC12CC3(O)CC1(C)CC3(O)C2	< 15%	33%
N=C(NO)C12CC3CC(CC(C3)C1)C2	< 15%	33%
C1CC2CC1C1CNCC21 (stereo not given)	< 15%	33%
C1CC2CC1C1CNC21 (stereo not given)	< 15%	33%
NN1CCC2(CCCCC2)CC1	< 15%	33%
